Reference: paper PMC11905058, “Novel Leech Antimicrobial Peptides, Hirunipins: Real‐Time 3D Monitoring of Antimicrobial and Antibiofilm Mechanisms Using Optical Diffraction Tomography” (Advanced Science, 2025)
No end group written: not given here.

How the values were obtained:
E. coli (KCTC 1682) = format: cell-based, Escherichia coli; conditions: KCTC 1682, 24 h
Protocol: (§1) The salt sensitivity of the peptides was also analyzed. […] The MIC values in the physiological environment were determined as described above, and data were acquired from three independent assays performed in triplicate. Minimal Inhibitory Concentrations (MICs): Bacteria were grown to mid-logarithmic phase and diluted in Mueller-Hinton broth (MHB) (Difco). The bacterial suspension (1×10^6 CFU/well) was added to a 96-well microtiter plate along with a two-fold serial dilution of samples. The plate was incubated at 37 °C for 24 hours and the bacterial growth inhibition was assessed by measuring the optical density using an ELISA plate reader. The minimum inhibitory concentration (MIC) was defined as the lowest concentration of samples that prevented visible bacterial growth.

MDRPA (314-69) = format: cell-based, Pseudomonas aeruginosa; conditions: 24 h
Protocol: (§2) The MICs of the peptides were measured by the Clinical and Laboratory Standards Institute (CLSI) broth microdilution method, as outlined in a previous study.^[ [26], [27] ^]
(§3) Microbial Strains and Cell Lines: Multiple bacterial strains were used in this study. Standard stains included Escherichia coli (KCTC 1682), Pseudomonas aeruginosa (KCTC 1637), Staphylococcus aureus (KCTC1621) and Staphylococcus epidermidis (KCTC 1917) supplied from the Korean Collection for Type Cultures (KCTC) of the Korea Research Institute of Bioscience and Biotechnology (KRIBB). Clinically isolated multidrug-resistant bacteria included multidrug-resistant Klebsiella pneumonia (MDRKP 328-83), multidrug-resistant Acinetobacter baumannii (MDRAB 329-53), multidrug-resistant Pseudomonas aeruginosa (MDRPA 314-69), multidrug-resistant Enterobacter cloacae (MDRE 328-84) and multidrug-resistant Escherichia coli (MDREC 329-66) provided from Hospital of Chosun University, Korea. All bacterial strains were stored in 20% glycerol at −80 °C. For the subsequent experiments, the bacteria were recovered and cultured in the corresponding enrichment broth at 37 °C. The mouse macrophage RAW264.7, mouse fibroblast NIH-3T3 and human keratinocyte HaCat cells were cultured in Dulbecco’s modified Eagle’s medium (DMEM), supplemented with 10% (v/v) of fetal bovine serum (Sigma-Aldrich), 100 U/mL of penicillin and 0.1 mg/mL of streptomycin, at 37 °C in the presence of 5% CO2
(§4) Minimal Inhibitory Concentrations (MICs): Bacteria were grown to mid-logarithmic phase and diluted in Mueller-Hinton broth (MHB) (Difco). The bacterial suspension (1×10^6 CFU/well) was added to a 96-well microtiter plate along with a two-fold serial dilution of samples. The plate was incubated at 37 °C for 24 hours and the bacterial growth inhibition was assessed by measuring the optical density using an ELISA plate reader. The minimum inhibitory concentration (MIC) was defined as the lowest concentration of samples that prevented visible bacterial growth.

MDRKP (328-83) = format: cell-based, Klebsiella pneumonia; conditions: 24 h
Protocol: as §2, §3, §4

S. aureus (KCTC1621) = format: cell-based, Staphylococcus aureus; conditions: KCTC1621, 24 h
Protocol: as §1

MDREC (329-66) = format: cell-based, Escherichia coli; conditions: 24 h
Protocol: as §2, §3, §4

[1] = test system: Escherichia coli [KCTC 1682]; format: cell-based; conditions: KCTC 1682, 24 h
Protocol: as §2, §4

[2] = test system: Pseudomonas aeruginosa [KCTC 1637]; format: cell-based; conditions: KCTC 1637, 24 h
Protocol: as §2, §4

[3] = test system: Staphylococcus aureus [KCTC1621]; format: cell-based; conditions: KCTC1621, 24 h
Protocol: as §2, §4

[4] = test system: Staphylococcus epidermidis [KCTC 1917]; format: cell-based; conditions: KCTC 1917, 24 h
Protocol: as §2, §4

MDRAB (329-53) [5] = format: cell-based, Acinetobacter baumannii; conditions: 24 h
Protocol: as §2, §3, §4

MDRE (328-84) = format: cell-based, Enterobacter cloacae; conditions: 24 h
Protocol: as §2, §3, §4

MDRAB (329-53) [6] = conditions: for FICI: fractional inhibitory concentration index, FICA + FICB / Interpretation of FICI: antibiotic in combination with hirunipin 2; for MICA: MIC of antibiotic alone: checkerboard, MDRAB, 1×10^6 CFU/mL; for FICA: fractional inhibitory concentration of antibiotic ([A] / MICA) / [A]: MIC of antibiotic in combination: in combination with hirunipin 2
Protocol: Synergy testing by checkerboard assay: Briefly, each 96-well microtiter plate was inoculated with two-fold serial dilutions of two antibiotics, ranging from 1/8 MIC to 2 MIC, such that one antibiotic was inoculated in the columns and the other in the rows. Then, MDRAB (329-53) cells were inoculated at a concentration of 1× 10^6 CFU/mL. The plates were incubated overnight under static conditions and observed visually.

Row | Compound | MIC against E. coli (KCTC 1682), 4 µM FeCl3 (E. coli (KCTC 1682)) [mg/L] | MIC against E. coli (KCTC 1682), 6 µM NH4Cl (E. coli (KCTC 1682)) [mg/L] | MIC against E. coli (KCTC 1682), 1 mM MgCl2 (E. coli (KCTC 1682)) [mg/L] | MIC against E. coli (KCTC 1682), 2.5 mM CaCl2 (E. coli (KCTC 1682)) [mg/L] | MIC against E. coli (KCTC 1682), 4.5 mM KCl (E. coli (KCTC 1682)) [mg/L] | MIC against E. coli (KCTC 1682), 150 mM NaCl (E. coli (KCTC 1682)) [mg/L] | MIC against E. coli (KCTC 1682), 25% Human serum (E. coli (KCTC 1682)) [mg/L] | MIC against E. coli (KCTC 1682), Control (E. coli (KCTC 1682)) [mg/L] | Minimum inhibitory concentrations, MDRPA (314-69) (MDRPA (314-69)) [mg/L] | Minimum inhibitory concentrations, MDRKP (328-83) (MDRKP (328-83)) [mg/L] | MIC against S. aureus (KCTC1621), 4 µM FeCl3 (S. aureus (KCTC1621)) [mg/L] | MIC against S. aureus (KCTC1621), 6 µM NH4Cl (S. aureus (KCTC1621)) [mg/L] | MIC against S. aureus (KCTC1621), 1 mM MgCl2 (S. aureus (KCTC1621)) [mg/L] | MIC against S. aureus (KCTC1621), 2.5 mM CaCl2 (S. aureus (KCTC1621)) [mg/L] | MIC against S. aureus (KCTC1621), 4.5 mM KCl (S. aureus (KCTC1621)) [mg/L] | MIC against S. aureus (KCTC1621), 150 mM NaCl (S. aureus (KCTC1621)) [mg/L] | MIC against S. aureus (KCTC1621), 25% Human serum (S. aureus (KCTC1621)) [mg/L] | MIC against S. aureus (KCTC1621), Control (S. aureus (KCTC1621)) [mg/L] | Minimum inhibitory concentrations, MDREC (329-66) (MDREC (329-66)) [mg/L] | Minimum inhibitory concentration (MIC), Escherichia coli [KCTC 1682] [1] [mg/L] | other results
1 | LLKKLLRSLIKPAIMKIINTPPQEKLQK-NH2 [Hirunipin 1] | 128 | 128 | 256 | 256 | 256 | 256 | 128 | 64 | 64 | >128 | 64 | 256 | 256 | 256 | 256 | 256 | 256 | 64 | 64 | 64 | Minimum inhibitory concentration (MIC), Pseudomonas aeruginosa [KCTC 1637] [2]: 32 mg/L; Minimum inhibitory concentration (MIC), Staphylococcus aureus [KCTC1621] [3]: 64 mg/L; Minimum inhibitory concentration (MIC), Staphylococcus epidermidis [KCTC 1917] [4]: 32 mg/L; Minimum inhibitory concentrations, MDRAB (329-53) (MDRAB (329-53) [5]): >128 mg/L; Minimum inhibitory concentrations, MDRE (328-84) (MDRE (328-84)): >128 mg/L
2 | CO[C@H]1/C=C/O[C@@]2(C)Oc3c(C)c(O)c4c(O)c(c(/C=N/N5CCN(C)CC5)c(O)c4c3C2=O)NC(=O)/C(C)=C\C=C\[C@H](C)[C@H](O)[C@@H](C)[C@@H](O)[C@@H](C)[C@H](OC(C)=O)[C@@H]1C [RIF, Rifampicin] |  |  |  |  |  |  |  |  |  |  |  |  |  |  |  |  |  |  |  |  | FICI: fractional inhibitory concentration index, FICA + FICB (MDRAB (329-53) [6]): 0.3125; Interpretation of FICI (MDRAB (329-53) [6]): synergy (FICI ≤ 0.5 was interpreted as synergy); MICA: MIC of antibiotic alone (MDRAB (329-53) [6]): 16 mg/L; FICA: fractional inhibitory concentration of antibiotic ([A] / MICA) (MDRAB (329-53) [6]): 0.0625; [A]: MIC of antibiotic in combination (MDRAB (329-53) [6]): 1 mg/L
3 | O=C(O)c1cn(C2CC2)c2cc(N3CCNCC3)c(F)cc2c1=O [CIP, Ciprofloxacin] |  |  |  |  |  |  |  |  |  |  |  |  |  |  |  |  |  |  |  |  | Interpretation of FICI (MDRAB (329-53) [6]): synergy (FICI ≤ 0.5 was interpreted as synergy); MICA: MIC of antibiotic alone (MDRAB (329-53) [6]): 128 mg/L; FICA: fractional inhibitory concentration of antibiotic ([A] / MICA) (MDRAB (329-53) [6]): 0.25; [A]: MIC of antibiotic in combination (MDRAB (329-53) [6]): 32 mg/L
4 | YFKIIKFLPKALKCLLPQKHKEHGNL-NH2 [Hirunipin 3] | 32 | 64 | 256 | 32 | 128 | 128 | 256 | 128 | >128 | >128 | >256 | 256 | 256 | 256 | 256 | 256 | >256 | 128 | 128 | 128 | Minimum inhibitory concentration (MIC), Pseudomonas aeruginosa [KCTC 1637] [2]: 128 mg/L; Minimum inhibitory concentration (MIC), Staphylococcus aureus [KCTC1621] [3]: 128 mg/L; Minimum inhibitory concentration (MIC), Staphylococcus epidermidis [KCTC 1917] [4]: 64 mg/L; Minimum inhibitory concentrations, MDRAB (329-53) (MDRAB (329-53) [5]): >128 mg/L; Minimum inhibitory concentrations, MDRE (328-84) (MDRE (328-84)): >128 mg/L
5 | O=C(N[C@H](CO)[C@H](O)c1ccc([N+](=O)[O-])cc1)C(Cl)Cl [CHL, Chloramphenicol] |  |  |  |  |  |  |  |  |  |  |  |  |  |  |  |  |  |  |  |  | FICI: fractional inhibitory concentration index, FICA + FICB (MDRAB (329-53) [6]): 0.1875; Interpretation of FICI (MDRAB (329-53) [6]): synergy (FICI ≤ 0.5 was interpreted as synergy); MICA: MIC of antibiotic alone (MDRAB (329-53) [6]): 1024 mg/L; FICA: fractional inhibitory concentration of antibiotic ([A] / MICA) (MDRAB (329-53) [6]): 0.125; [A]: MIC of antibiotic in combination (MDRAB (329-53) [6]): 128 mg/L
6 | MKSINLKKVVKSIIKKILNSSF-NH2 [Hirunipin 2] | 8 | 8 | 32 | 8 | 8 | 16 | 64 | 32 | 16 | 128 | 32 | 16 | 32 | 32 | 32 | 32 | 64 | 32 | 16 | 32 | Minimum inhibitory concentration (MIC), Pseudomonas aeruginosa [KCTC 1637] [2]: 32 mg/L; Minimum inhibitory concentration (MIC), Staphylococcus aureus [KCTC1621] [3]: 32 mg/L; Minimum inhibitory concentration (MIC), Staphylococcus epidermidis [KCTC 1917] [4]: 32 mg/L; MICB: MIC of hirunipin 2 alone (MDRAB (329-53) [6]): 64 mg/L; Minimum inhibitory concentrations, MDRAB (329-53) (MDRAB (329-53) [5]): 64 mg/L; Minimum inhibitory concentrations, MDRE (328-84) (MDRE (328-84)): 32 mg/L
